How the values were obtained:
Stromelysin-2 [1] = biological target: T1, Stromelysin-2 (Homo sapiens, UniProt P09238); assay: Inhibition of MMP-10 (unknown origin)
Stromelysin-2 [2] = biological target: T1, Stromelysin-2; assay: Inhibition of MMP10 (unknown origin) using FRET peptide

T1 sequence (P09238 whole entry): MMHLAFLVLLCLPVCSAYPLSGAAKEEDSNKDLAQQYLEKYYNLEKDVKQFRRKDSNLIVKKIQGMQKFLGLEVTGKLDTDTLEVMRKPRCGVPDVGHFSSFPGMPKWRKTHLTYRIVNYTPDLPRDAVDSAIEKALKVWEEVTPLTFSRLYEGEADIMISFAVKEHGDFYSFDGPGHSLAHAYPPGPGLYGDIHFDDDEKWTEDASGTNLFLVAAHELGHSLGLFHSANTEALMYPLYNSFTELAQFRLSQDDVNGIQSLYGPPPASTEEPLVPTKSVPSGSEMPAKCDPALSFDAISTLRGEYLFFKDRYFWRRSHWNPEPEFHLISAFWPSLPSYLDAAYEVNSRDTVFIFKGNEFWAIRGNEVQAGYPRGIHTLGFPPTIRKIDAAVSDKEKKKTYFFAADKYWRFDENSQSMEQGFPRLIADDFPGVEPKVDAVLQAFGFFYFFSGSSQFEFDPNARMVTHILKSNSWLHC

Structure (SMILES)	IC50 (Stromelysin-2 [1]) [nM]	IC50 (Stromelysin-2 [2]) [nM]
CC(=O)N1c2nc(C)cc(=O)n2[C@H](c2ccc(Br)cc2)N1C(C)=O	24	
O=C(O)CCCCCCCCOc1ccc(CC(=O)Nc2ccc3c(c2)C(=O)N(Cc2ccccc2)C3=O)cc1		1200

— ChEMBL document CHEMBL5241089, “Matrix metalloproteinases inhibitors in idiopathic pulmonary fibrosis: Medicinal chemistry perspectives” (Eur J Med Chem, 2021)
